Measurements: patent US12077503B2, “Substituted cyclic amides and their use as herbicides” (FMC CORPORATION, priority 2015, dated 2024)

Key:
Format in all cases: in vivo
[1] = test system: giant foxtail (Setaria faberii); experiment: Test A postemergence; conditions: Setaria faberi, post-emergence, 240 h, read-out: Plant response rating, Foxtail, Giant
Procedure, shortened: (§1)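 Seeded soil received test chemicals as a preemergence directed spray, and seedlings at one to two leaves, 2–10 cm tall, received them postemergence, in a non-phytotoxic, surfactant-containing solvent mixture. Pots were held in a greenhouse for approximately 10 d, then rated for injury from 0, no effect, to 100, complete control.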

[2] = test system: wheat (Triticum aestivum); experiment: Test A postemergence; conditions: Triticum aestivum, post-emergence, 240 h, read-out: Plant response rating, Wheat
Procedure, shortened: as §1

[3] = test system: Galium (catchweed bedstraw, Galium aparine); experiment: Test A postemergence; conditions: Galium, post-emergence, 240 h, read-out: Plant response rating, Galium
Procedure, shortened: as §1

Kochia (Kochia scoparia) [4] = experiment: Test A postemergence; conditions: Bassia scoparia, post-emergence, 240 h, read-out: Plant response rating, Kochia
Procedure, shortened: as §1

[5] = test system: ryegrass, Italian (Italian ryegrass, Lolium multiflorum); experiment: Test A postemergence; conditions: Lolium multiflorum, post-emergence, 240 h, read-out: Plant response rating, Ryegrass, Italian
Procedure, shortened: as §1

[6] = test system: pigweed (Amaranthus retroflexus); experiment: Test A postemergence; conditions: Amaranthus retroflexus, post-emergence, 240 h, read-out: Plant response rating, Pigweed
Procedure, shortened: as §1

[7] = test system: ragweed (common ragweed, Ambrosia elatior); experiment: Test A postemergence; conditions: Ambrosia artemisiifolia, post-emergence, 240 h, read-out: Plant response rating, Ragweed
Procedure, shortened: as §1

[8] = test system: barnyardgrass (Echinochloa crus-galli); experiment: Test A postemergence; conditions: Echinochloa crus-galli, post-emergence, 240 h, read-out: Plant response rating, Barnyardgrass
Procedure, shortened: as §1

corn (Zea mays) = experiment: Test A postemergence; conditions: Zea mays, post-emergence, 240 h
Procedure, shortened: as §1

[9] = test system: blackgrass (Alopecurus myosuroides); experiment: Test A postemergence; conditions: Alopecurus myosuroides, post-emergence, 240 h, read-out: Plant response rating, Blackgrass
Procedure, shortened: as §1

[10] = test system: giant foxtail (Setaria faberii); experiment: Test A preemergence; conditions: Setaria faberi, pre-emergence, 240 h
Procedure, shortened: as §1

Kochia (Kochia scoparia) [11] = experiment: Test A preemergence; conditions: Bassia scoparia, pre-emergence, 240 h
Procedure, shortened: as §1

[12] = test system: ryegrass, Italian (Italian ryegrass, Lolium multiflorum); experiment: Test A preemergence; conditions: Lolium multiflorum, pre-emergence, 240 h
Procedure, shortened: as §1

[13] = test system: pigweed (Amaranthus retroflexus); experiment: Test A preemergence; conditions: Amaranthus retroflexus, pre-emergence, 240 h
[14] = test system: ragweed (common ragweed, Ambrosia elatior); experiment: Test A preemergence; conditions: Ambrosia artemisiifolia, pre-emergence, 240 h
Procedure, shortened: as §1

[15] = test system: barnyardgrass (Echinochloa crus-galli); experiment: Test A preemergence; conditions: Echinochloa crus-galli, pre-emergence, 240 h
Procedure, shortened: as §1

rice (Oryra sativa) = experiment: Test B flooded paddy test; conditions: Oryza sativa, 250 g ai/ha, Flood; 0 to 100 scale where 0 is no effect and 100 is complete control; read-out: Rice plant response rating
Procedure, shortened: (§2)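 Plants at 2-leaf stage flooded to 3 cm above soil, with compounds applied directly to paddy water and that depth maintained. Plants kept in greenhouse 13–15 d. Visual rating versus controls on a 0 (no effect) to 100 (complete control) scale.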

[16] = test system: barnyardgrass (Echinochloa crus-galli); experiment: Test B flooded paddy test; conditions: Echinochloa crus-galli, 250 g ai/ha, Flood; 0 to 100 scale where 0 is no effect and 100 is complete control; read-out: Barnyardgrass plant response rating
Procedure, shortened: as §2

[17] = test system: ducksalad (Heteranthera limosa); experiment: Test B flooded paddy test; conditions: Heteranthera limosa, 250 g ai/ha, Flood; 0 to 100 scale where 0 is no effect and 100 is complete control; read-out: Ducksalad plant response rating
Procedure, shortened: as §2

[18] = test system: sedge, umbrella (small-flower umbrella sedge, Cyperus difformis); experiment: Test B flooded paddy test; conditions: Cyperus difformis, 250 g ai/ha, Flood; 0 to 100 scale where 0 is no effect and 100 is complete control; read-out: Sedge, Umbrella plant response rating
Procedure, shortened: as §2

[19] = 125 g ai/ha, Postemergence, visual injury after approximately 10 d, 0 to 100 scale where 0 is no effect and 100 is complete control
[20] = 500 g ai/ha, postemergence, visual injury, 0 to 100 scale (0 no effect, 100 complete control), approx. 10 d

Q: With `CSc1ccccc1NC(=O)[C@H]1C(=O)N(C)C[C@@H]1c1ccc(C)c(Cl)c1` [Compound 1015] as the molecule, how does the pest or weed control at 125 g/ha [1, 19] read?
A: Its pest or weed control at 125 g/ha is 80%.

Q: And the pest or weed control at 500 g/ha [1, 20]?
A: The pest or weed control at 500 g/ha was 80%.

Q: And the plant injury at 125 g/ha [2, 19]?
A: The plant injury at 125 g/ha was 0%.

Q: What about the plant injury at 500 g/ha [2, 20] of the same molecule?
A: Its plant injury at 500 g/ha is 60%.

Q: And the pest or weed control at 125 g/ha [3, 19]?
A: The pest or weed control at 125 g/ha was 40%.

Q: What about the pest or weed control at 500 g/ha [3, 20] of the same molecule?
A: Its pest or weed control at 500 g/ha is 70%.

Q: And the pest or weed control at 125 g/ha (Kochia (Kochia scoparia) [4]; [19])?
A: The pest or weed control at 125 g/ha was 0%.

Q: What about the pest or weed control at 500 g/ha (Kochia (Kochia scoparia) [4]; [20]) of the same molecule?
A: The pest or weed control at 500 g/ha was 50%.

Q: What about the pest or weed control at 125 g/ha [5, 19] of the same molecule?
A: The pest or weed control at 125 g/ha was 30%.

Q: And the pest or weed control at 500 g/ha [5, 20]?
A: The pest or weed control at 500 g/ha was 50%.

Q: What about the pest or weed control at 125 g/ha [6, 19] of the same molecule?
A: The pest or weed control at 125 g/ha was 30%.

Q: And the pest or weed control at 500 g/ha [6, 20]?
A: The pest or weed control at 500 g/ha was 50%.

Q: And the pest or weed control at 125 g/ha [7, 19]?
A: The pest or weed control at 125 g/ha was 0%.

Q: What about the pest or weed control at 500 g/ha [7, 20] of the same molecule?
A: Its pest or weed control at 500 g/ha is 40%.

Q: What about the pest or weed control at 125 g/ha [8, 19] of the same molecule?
A: The pest or weed control at 125 g/ha was 90%.

Q: What about the pest or weed control at 500 g/ha [8, 20] of the same molecule?
A: Its pest or weed control at 500 g/ha is 90%.

Q: And the Corn plant response rating (crop injury, 0 = no effect, 100 = complete kill) at 125 g/ha (corn (Zea mays); [19])?
A: The Corn plant response rating (crop injury, 0 = no effect, 100 = complete kill) at 125 g/ha was 70%.

Q: And the Corn plant response rating (crop injury, 0 = no effect, 100 = complete kill) at 500 g/ha (corn (Zea mays); [20])?
A: Its Corn plant response rating (crop injury, 0 = no effect, 100 = complete kill) at 500 g/ha is 90%.

Q: What about the pest or weed control at 125 g/ha [9, 19] of the same molecule?
A: Its pest or weed control at 125 g/ha is 0%.

Q: What about the pest or weed control at 500 g/ha [9, 20] of the same molecule?
A: Its pest or weed control at 500 g/ha is 50%.

Q: And the pest or weed control at 125 g/ha ([10]; 125 g ai/ha, Preemergence, visual injury rating after approximately 10 d, read-out: Foxtail, Giant plant response rating (0 to 100 scale, 0 is no effect, 100 is complete control))?
A: Its pest or weed control at 125 g/ha is 90%.

Q: And the pest or weed control at 500 g/ha ([10]; 500 g ai/ha, preemergence, visual injury rating about 10 d after treatment, 0 to 100 scale (0 no effect, 100 complete control), read-out: Foxtail, Giant plant response rating)?
A: Its pest or weed control at 500 g/ha is 90%.

Q: And the pest or weed control at 125 g/ha (Kochia (Kochia scoparia) [11]; 125 g ai/ha, Preemergence, visual injury rating after approximately 10 d, read-out: Kochia plant response rating (0 to 100 scale, 0 is no effect, 100 is complete control))?
A: The pest or weed control at 125 g/ha was 0%.

Q: What about the pest or weed control at 500 g/ha (Kochia (Kochia scoparia) [11]; 500 g ai/ha, preemergence, visual injury rating about 10 d after treatment, 0 to 100 scale (0 no effect, 100 complete control), read-out: Kochia plant response rating) of the same molecule?
A: The pest or weed control at 500 g/ha was 60%.

Q: And the pest or weed control at 125 g/ha ([12]; 125 g ai/ha, Preemergence, visual injury rating after approximately 10 d, read-out: Ryegrass, Italian plant response rating (0 to 100 scale, 0 is no effect, 100 is complete control))?
A: The pest or weed control at 125 g/ha was 40%.

Q: And the pest or weed control at 500 g/ha ([12]; 500 g ai/ha, preemergence, visual injury rating about 10 d after treatment, 0 to 100 scale (0 no effect, 100 complete control), read-out: Ryegrass, Italian plant response rating)?
A: The pest or weed control at 500 g/ha was 90%.

Q: What about the pest or weed control at 125 g/ha ([13]; 125 g ai/ha, Preemergence, visual injury rating after approximately 10 d, read-out: Pigweed plant response rating (0 to 100 scale, 0 is no effect, 100 is complete control)) of the same molecule?
A: The pest or weed control at 125 g/ha was 0%.

Q: And the pest or weed control at 500 g/ha ([13]; 500 g ai/ha, preemergence, visual injury rating about 10 d after treatment, 0 to 100 scale (0 no effect, 100 complete control), read-out: Pigweed plant response rating)?
A: The pest or weed control at 500 g/ha was 40%.

Q: What about the pest or weed control at 125 g/ha ([14]; 125 g ai/ha, Preemergence, visual injury rating after approximately 10 d, read-out: Ragweed plant response rating (0 to 100 scale, 0 is no effect, 100 is complete control)) of the same molecule?
A: Its pest or weed control at 125 g/ha is 0%.

Q: What about the pest or weed control at 500 g/ha ([14]; 500 g ai/ha, preemergence, visual injury rating about 10 d after treatment, 0 to 100 scale (0 no effect, 100 complete control), read-out: Ragweed plant response rating) of the same molecule?
A: Its pest or weed control at 500 g/ha is 50%.

Q: What about the pest or weed control at 125 g/ha ([15]; 125 g ai/ha, Preemergence, visual injury rating after approximately 10 d, read-out: Barnyardgrass plant response rating (0 to 100 scale, 0 is no effect, 100 is complete control)) of the same molecule?
A: The pest or weed control at 125 g/ha was 90%.

Q: What about the pest or weed control at 500 g/ha ([15]; 500 g ai/ha, preemergence, visual injury rating about 10 d after treatment, 0 to 100 scale (0 no effect, 100 complete control), read-out: Barnyardgrass plant response rating) of the same molecule?
A: The pest or weed control at 500 g/ha was 90%.

Q: And the pest or weed control at 250 g/ha (rice (Oryra sativa))?
A: The pest or weed control at 250 g/ha was 40%.

Q: What about the pest or weed control at 250 g/ha [16] of the same molecule?
A: The pest or weed control at 250 g/ha was 95%.

Q: What about the pest or weed control at 250 g/ha [17] of the same molecule?
A: Its pest or weed control at 250 g/ha is 90%.

Q: What about the pest or weed control at 250 g/ha [18] of the same molecule?
A: The pest or weed control at 250 g/ha was 35%.
